In the experiment the target is T1, human PDE4B1 (Homo sapiens, UniProt Q07343).
T1 construct: host or cells: Sf9 cells
The experiment in a line: cAMP HTRF assay to determine the activity of hPDE4B1. The following applies: inhibition of PDE4B at a test concentration of 1 μM; for Inhibition in %: 1 µM. The class given is biochemical. In a few lines: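 […], using HTRF quantitation of residual cAMP after 1 mM IBMX stop and 60 min detection. Enzyme was Sf9-expressed human PDE4B1 incubated 30 min at room temperature with 40 nM final cAMP at pH 7.8.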
A general note: Time-resolved FRET reads energy transfer from a long-lived donor to a nearby acceptor.

SMILES strings stand for the structures.

What is called inhibition is the relative decrease from the control value, in per cent.

T1 sequence (Q07343 whole entry): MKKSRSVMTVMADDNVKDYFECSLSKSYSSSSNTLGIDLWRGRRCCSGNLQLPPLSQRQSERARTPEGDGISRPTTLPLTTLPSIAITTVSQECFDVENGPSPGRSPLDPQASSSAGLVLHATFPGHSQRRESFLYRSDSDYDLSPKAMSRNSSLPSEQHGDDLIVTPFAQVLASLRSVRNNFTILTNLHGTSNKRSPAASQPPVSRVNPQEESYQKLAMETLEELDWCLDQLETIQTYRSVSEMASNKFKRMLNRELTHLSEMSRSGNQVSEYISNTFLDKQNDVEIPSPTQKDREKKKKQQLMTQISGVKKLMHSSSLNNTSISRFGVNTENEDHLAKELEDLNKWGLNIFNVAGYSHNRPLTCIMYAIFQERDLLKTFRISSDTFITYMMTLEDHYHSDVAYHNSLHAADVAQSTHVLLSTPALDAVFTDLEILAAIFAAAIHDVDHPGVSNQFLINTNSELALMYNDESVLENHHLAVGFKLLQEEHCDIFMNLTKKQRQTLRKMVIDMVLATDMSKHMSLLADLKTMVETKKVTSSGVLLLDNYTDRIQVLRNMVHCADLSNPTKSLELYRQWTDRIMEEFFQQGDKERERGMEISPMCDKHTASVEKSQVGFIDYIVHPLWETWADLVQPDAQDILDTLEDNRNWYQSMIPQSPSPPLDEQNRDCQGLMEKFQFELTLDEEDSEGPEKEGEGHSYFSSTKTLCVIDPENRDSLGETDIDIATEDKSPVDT

As to `CN(C)CCN(C)C(=O)c1ccc2c([S+](C)[O-])cn(-c3ncc(-c4ccccc4F)cn3)c2c1` (stereo not drawn) [Example 367, N-(2-(Dimethylamino)ethyl)-1-(5-(2-fluorophenyl)pyrimidin-2-yl)-N-methyl-3-(methylsulfinyl)-1H-indole-6-carboxamide], the inhibition at 1 µM is 40%. `Cc1cccc(-c2cnc(-n3cc([S+](C)[O-])c4ccc(C(=O)N5CCNC(=O)C5)cc43)nc2)c1` (single isomer, unassigned) [Example 216, 4-(3-(Methylsulfinyl)-1-(5-(m-tolyl)pyrimidin-2-yl)-1H-indole-6-carbonyl)piperazin-2-one]: the Inhibition in % came to 94%. For `C[S+]([O-])c1cn(-c2ncc(-c3ccccc3F)cn2)c2cc(C(=O)N3CCOCC3)ccc12` (stereo not drawn) [Example 1, (1-(5-(2-fluorophenyl)pyrimidin-2-yl)-3-(methylsulfinyl)-1H-indol-6-yl)(morpholino)methanone], the inhibition at 1 µM came to 104%. For the molecule `C[S+]([O-])c1cn(-c2ncc(-c3ccccc3F)cn2)c2cc(C(=O)N3CCCC3)ccc12` (stereo not drawn) [Example 51, (1-(5-(2-Fluorophenyl)pyrimidin-2-yl)-3-(methylsulfinyl)-1H-indol-6-yl)(pyrrolidin-1-yl)methanone], the inhibition at 1 µM was determined as 86%. As to `COc1ccc(-c2cnc(-n3cc([S+](C)[O-])c4ccc(C(=O)N5CCOCC5)cc43)nc2)c(F)c1` (stereo not drawn) [Example 39, (1-(5-(2-Fluoro-4-methoxyphenyl)pyrimidin-2-yl)-3-(methylsulfinyl)-1H-indol-6-yl)(morpholino)methanone], the inhibition at 1 µM is 105%. For `CN(C)C(=O)c1ccc2c([S+](C)[O-])cn(-c3ncc(-c4ccccc4F)cn3)c2c1` (stereo not drawn) [Example 52, 1-(5-(2-Fluorophenyl)pyrimidin-2-yl)-N,N-dimethyl-3-(methylsulfinyl)-1H-indole-6-carboxamide], the inhibition at 1 µM is 91%.

In the case of `CC(C)N1CCN(C(=O)c2ccc3c([S+](C)[O-])cn(-c4ncc(-c5ccccc5F)cn4)c3c2)CC1` (stereo not drawn) [Example 386, (1-(5-(2-Fluorophenyl)pyrimidin-2-yl)-3-(methylsulfinyl)-1H-indol-6-yl)(4-isopropylpiperazin-1-yl)methanone], the inhibition at 1 µM was determined as 6%. `COc1ccc(F)c(-c2cnc(-n3cc([S+](C)[O-])c4ccc(C(=O)N5CC[C@@H](N)C5)cc43)nc2)c1` (stereo partly drawn) [Example 226, ((R)-3-Aminopyrrolidin-1-yl)(1-(5-(2-fluoro-5-methoxyphenyl)pyrimidin-2-yl)-3-(methylsulfinyl)-1H-indol-6-yl)methanone]: the inhibition at 1 µM worked out at 99%. On the same count and under the same terms, the same measure for `C[S+]([O-])c1cn(-c2ncc(-c3cccnc3F)cn2)c2cc(C(=O)N3CCOCC3)ccc12` (stereo not drawn) [Example 48, (1-(5-(2-Fluoropyridin-3-yl)pyrimidin-2-yl)-3-(methylsulfinyl)-1H-indol-6-yl)(morpholino)methanone]: 63%; for `C[S+]([O-])c1cn(-c2ncc(-c3ccccc3F)cn2)c2cc(C(=O)N3CCN(CCO)CC3)ccc12` (stereo not drawn) [Example 389, (1-(5-(2-Fluorophenyl)pyrimidin-2-yl)-3-(methylsulfinyl)-1H-indol-6-yl)(4-(2-hydroxyethyl)piperazin-1-yl)methanone]: 52%.

For the molecule `COc1cccc(-c2cnc(-n3cc([S+](C)[O-])c4ccc(C(=O)N5CCOCC5)cc43)nc2)c1` (stereo not drawn) [Example 45, (1-(5-(3-Methoxyphenyl)pyrimidin-2-yl)-3-(methylsulfinyl)-1H-indol-6-yl)(morpholino)methanone], the inhibition at 1 µM amounted to 115%. As to `C[C@H](O)CN(C)C(=O)c1ccc2c([S+](C)[O-])cn(-c3ncc(-c4ccccc4F)cn3)c2c1` (stereo partly drawn) [Example 251, 1-(5-(2-Fluorophenyl)pyrimidin-2-yl)-N—((S)-2-hydroxypropyl)-N-methyl-3-(methylsulfinyl)-1H-indole-6-carboxamide], the inhibition at 1 µM worked out at 45%. As to `C[S+]([O-])c1cn(-c2ncc(-c3ccccc3F)cn2)c2cc(C(=O)N3C[C@@H]4C[C@H]3CN4)ccc12` (stereo partly drawn) [Example 240, (1S,4S)-2,5-Diazabicyclo[2.2.1]heptan-2-yl(1-(5-(2-fluorophenyl)pyrimidin-2-yl)-3-(methylsulfinyl)-1H-indol-6-yl)methanone], the inhibition at 1 µM amounted to 101%.

For the molecule `C[S+]([O-])c1cn(-c2ncc(-c3ccccc3F)cn2)c2cc(C(=O)NCC3COC3)ccc12` (stereo not drawn) [Example 83, 1-(5-(2-Fluorophenyl)pyrimidin-2-yl)-3-(methylsulfinyl)-N-(oxetan-3-ylmethyl)-1H-indole-6-carboxamide], the inhibition at 1 µM stood at 67%. With `C[S+]([O-])c1cn(-c2ncc(-c3ccccc3F)cn2)c2cc(C(=O)NCCO)ccc12` (stereo not drawn) [Example 63, 1-(5-(2-Fluorophenyl)pyrimidin-2-yl)-N-(2-hydroxyethyl)-3-(methylsulfinyl)-1H-indole-6-carboxamide], the inhibition at 1 µM amounted to 37%. Regarding `COC(=O)CN(C)C(=O)c1ccc2c([S+](C)[O-])cn(-c3ncc(-c4ccccc4F)cn3)c2c1` (stereo not drawn) [Example 177, Methyl 2-(1-(5-(2-fluorophenyl)pyrimidin-2-yl)-N-methyl-3-(methylsulfinyl)-1H-indole-6-carboxamido)acetate], the inhibition at 1 µM is 39%. `CC1CN(C(=O)c2ccc3c([S+](C)[O-])cn(-c4ncc(-c5ccccc5F)cn4)c3c2)CC(C)O1` (single isomer, unassigned) [Example 378, (2,6-Dimethylmorpholino)(1-(5-(2-fluorophenyl)pyrimidin-2-yl)-3-(methylsulfinyl)-1H-indol-6-yl)methanone] gave an Inhibition in % of 31%.

For `CC1CCCCN1C(=O)c1ccc2c([S+](C)[O-])cn(-c3ncc(-c4ccccc4F)cn3)c2c1` (stereo not drawn) [Example 361, (1-(5-(2-Fluorophenyl)pyrimidin-2-yl)-3-(methylsulfinyl)-1H-indol-6-yl)(2-methylpiperidin-1-yl)methanone], the inhibition at 1 µM stood at 40%. Still for that read-out and setting: to `C[S+]([O-])c1cn(-c2ncc(-c3ccccc3F)cn2)c2cc(C(=O)N3CCS(=O)(=O)CC3)ccc12` (stereo not drawn) [Example 390, (1,1-Dioxidothiomorpholino)(1-(5-(2-fluorophenyl)pyrimidin-2-yl)-3-(methylsulfinyl)-1H-indol-6-yl)methanone] belongs 6%. As for `CN(C(=O)c1ccc2c([S+](C)[O-])cn(-c3ncc(-c4ccccc4F)cn3)c2c1)C1CCNC1` (stereo not drawn) [Example 58, 1-(5-(2-Fluorophenyl)pyrimidin-2-yl)-N-methyl-3-(methylsulfinyl)-N-(pyrrolidin-3-yl)-1H-indole-6-carboxamide], the inhibition at 1 µM worked out at 90%.

Take `COc1ccc(F)c(-c2cnc(-n3cc([S+](C)[O-])c4ccc(C(=O)N5CCOCC5)cc43)nc2)c1` (stereo not drawn) [Example 38, (1-(5-(2-Fluoro-5-methoxyphenyl)pyrimidin-2-yl)-3-(methylsulfinyl)-1H-indol-6-yl)(morpholino)methanone]: the inhibition at 1 µM turned out to be 102%. The same measure, in the same setting: the same measure for `C[S+]([O-])c1cn(-c2ncc(-c3cc(C#N)ccn3)cn2)c2cc(C(=O)N3CCOCC3)ccc12` (stereo not drawn) [Example 181, 2-(2-(3-(Methylsulfinyl)-6-(morpholine-4-carbonyl)-1H-indol-1-yl)pyrimidin-5-yl)isonicotinonitrile]: 96%; for `C[S+]([O-])c1cn(-c2ncc(-c3cccc(C#N)n3)cn2)c2cc(C(=O)N3CCOCC3)ccc12` (stereo not drawn) [Example 183, 6-(2-(3-(Methylsulfinyl)-6-(morpholine-4-carbonyl)-1H-indol-1-yl)pyrimidin-5-yl)picolinonitrile]: 60%; for `CC1CC(C)CN(C(=O)c2ccc3c([S+](C)[O-])cn(-c4ncc(-c5ccccc5F)cn4)c3c2)C1` (single isomer, unassigned) [Example 372, (3,5-Dimethylpiperidin-1-yl)(1-(5-(2-fluorophenyl)pyrimidin-2-yl)-3-(methylsulfinyl)-1H-indol-6-yl)methanone]: 40%. Consider `C[S+]([O-])c1cn(-c2ncc(-c3cc(F)ccn3)cn2)c2cc(C(=O)N3CCOCC3)ccc12` (stereo not drawn) [Example 182, (1-(5-(4-Fluoropyridin-2-yl)pyrimidin-2-yl)-3-(methylsulfinyl)-1H-indol-6-yl)(morpholino)methanone], for which the inhibition at 1 µM was determined as 95%. `C[S+]([O-])c1cn(-c2ncc(-c3ccccc3F)cn2)c2cc(C(=O)N3C[C@H]4C[C@@H]3CO4)ccc12` (stereo partly drawn) [Example 243, (1R,4R)-2-Oxa-5-azabicyclo[2.2.1]heptan-5-yl(1-(5-(2-fluorophenyl)pyrimidin-2-yl)-3-(methylsulfinyl)-1H-indol-6-yl)methanone]: the inhibition at 1 µM stood at 64%. `Cc1cccc(-c2cnc(-n3cc(S(C)(=O)=O)c4ccc(C(=O)N5CC[C@@H](N)C5)cc43)nc2)c1` [Example 167, (R)-(3-Aminopyrrolidin-1-yl)(3-(methylsulfonyl)-1-(5-(m-tolyl)pyrimidin-2-yl)-1H-indol-6-yl)methanone]: the inhibition at 1 µM was determined as 87%. Still for that read-out and setting: to `CS(=O)(=O)c1cn(-c2ncc(-c3ccccc3F)cn2)c2cc(C(=O)N3C[C@H]4C[C@@H]3CO4)ccc12` [Example 238, (1R,4R)-2-Oxa-5-azabicyclo[2.2.1]heptan-5-yl(1-(5-(2-fluorophenyl)pyrimidin-2-yl)-3-(methylsulfonyl)-1H-indol-6-yl)methanone] belongs 32%; to `C[S+]([O-])c1cn(-c2ncc(-c3ccccc3F)cn2)c2cc(C(=O)N3CC[C@@H](O)C3)ccc12` (stereo partly drawn) [Example 66, (1-(5-(2-Fluorophenyl)pyrimidin-2-yl)-3-(methylsulfinyl)-1H-indol-6-yl)((R)-3-hydroxypyrrolidin-1-yl)methanone], 97%.

On to `C[S+]([O-])c1cn(-c2ncc(-c3cccc(C#N)c3)cn2)c2cc(C(=O)N3CCOCC3)ccc12` (stereo not drawn) [Example 40, 3-(2-(3-(Methylsulfinyl)-6-(morpholine-4-carbonyl)-1H-indol-1-yl)pyrimidin-5-yl)benzonitrile], for which the inhibition at 1 µM came out at 93%.

Source of the values: patent publication US9315490B2, “2,5-substituted pyrimidines” (Grünenthal GmbH, priority 2014, dated 2016).
